The values below come from paper PMC11943303 (International Journal of Molecular Sciences, 2025).

Details of series [1]: method as in PMID 10777510, PMID 18272843. The settings on record: isoforms identified in vivo; cited from earlier work.
The target in series [2] is T1, transient outward potassium current, ITo (Rattus norvegicus, UniProt Q62897+Q63881).
T1 construct: INa and ITo were recorded from freshly isolated left ventricular cardiomyocytes; endogenous in cells; host or cells: freshly isolated left ventricular cardiomyocytes of adult Sprague Dawley rats
T1 sequence (Q63881 1-630): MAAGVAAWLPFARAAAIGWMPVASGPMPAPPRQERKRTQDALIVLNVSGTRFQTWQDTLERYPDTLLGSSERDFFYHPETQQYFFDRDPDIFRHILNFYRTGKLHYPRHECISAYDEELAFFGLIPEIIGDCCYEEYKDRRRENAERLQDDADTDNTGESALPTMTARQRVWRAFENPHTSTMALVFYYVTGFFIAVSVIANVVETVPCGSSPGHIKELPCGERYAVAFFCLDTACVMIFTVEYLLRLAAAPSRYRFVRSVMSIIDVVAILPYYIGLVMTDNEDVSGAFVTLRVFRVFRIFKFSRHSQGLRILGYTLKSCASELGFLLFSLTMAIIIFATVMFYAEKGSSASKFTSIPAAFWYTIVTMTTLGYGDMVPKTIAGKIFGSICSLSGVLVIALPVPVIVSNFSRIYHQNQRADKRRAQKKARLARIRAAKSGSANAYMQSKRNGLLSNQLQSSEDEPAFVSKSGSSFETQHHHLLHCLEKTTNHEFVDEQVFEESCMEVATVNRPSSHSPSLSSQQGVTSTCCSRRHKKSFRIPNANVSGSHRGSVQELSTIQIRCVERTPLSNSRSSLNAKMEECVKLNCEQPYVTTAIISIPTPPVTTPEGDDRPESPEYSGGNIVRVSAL
T1 sequence (Q62897 1-655): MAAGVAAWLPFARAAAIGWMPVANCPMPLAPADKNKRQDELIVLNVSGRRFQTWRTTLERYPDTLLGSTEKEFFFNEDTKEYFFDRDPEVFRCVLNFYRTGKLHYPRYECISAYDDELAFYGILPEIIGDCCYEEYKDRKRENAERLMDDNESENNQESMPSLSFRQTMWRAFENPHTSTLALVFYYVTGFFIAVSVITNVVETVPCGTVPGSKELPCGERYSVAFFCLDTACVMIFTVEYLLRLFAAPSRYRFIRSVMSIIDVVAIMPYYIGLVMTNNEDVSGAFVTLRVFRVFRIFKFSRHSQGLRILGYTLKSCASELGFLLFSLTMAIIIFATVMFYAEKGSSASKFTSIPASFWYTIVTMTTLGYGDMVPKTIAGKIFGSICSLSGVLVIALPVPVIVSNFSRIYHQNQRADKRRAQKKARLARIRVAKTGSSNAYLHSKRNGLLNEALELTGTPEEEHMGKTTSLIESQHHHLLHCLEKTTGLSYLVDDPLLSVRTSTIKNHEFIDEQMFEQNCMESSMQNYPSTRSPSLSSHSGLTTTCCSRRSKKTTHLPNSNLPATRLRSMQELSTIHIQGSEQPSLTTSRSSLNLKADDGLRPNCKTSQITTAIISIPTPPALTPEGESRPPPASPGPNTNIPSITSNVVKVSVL
T1 sequence (Q9JM59 1-270 partner): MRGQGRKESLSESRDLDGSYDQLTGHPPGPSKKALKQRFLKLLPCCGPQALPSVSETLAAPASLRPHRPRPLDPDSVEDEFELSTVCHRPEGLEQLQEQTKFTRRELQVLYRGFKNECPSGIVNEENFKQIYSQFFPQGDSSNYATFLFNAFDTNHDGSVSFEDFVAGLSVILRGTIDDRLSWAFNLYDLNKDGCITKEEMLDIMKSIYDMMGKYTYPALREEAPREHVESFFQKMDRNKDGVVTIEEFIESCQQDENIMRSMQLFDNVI
As to the kind of experiment: ITo current block (dose-response, I/V), whole-cell patch clamp in rat cardiomyocytes. In kind it is cell-based, rat (Sprague Dawley). The following applies: 15 min pre-incubation, n = 32, 6 animals; for IC50: Hill equation fit to Gmax,[X]/Gmax,[ctrl], partial block. Here is the method: Ventricular cardiomyocytes from adult rats were isolated by enzymatic dissociation as previously reported. Adult Sprague Dawley rats (Charles River, Montreal, QC, Canada) were heparinized (5000 U) and sedated with 2% Isoflurane in an oxygen chamber (2 L/min). Hearts were excised by thoracotomy and cannulated via the aorta to be mounted on a Langendorff perfusion apparatus. Hearts were initially perfused with standard calcium-free Tyrode solution [21] at 37 °C (3–5 min), at a rate of 13 mL/min, and pre-digested by perfusion with low-calcium (150 μM) Tyrode solution supplemented with 220–280 U/mg of low-trypsin collagenase type 2 (Worthington Biochemical, Toronto, ON, Canada) for less than 15 min.
Once removed from the Langendorf perfusion apparatus, the heart septum and left ventricle were cut and gently shaken for 3 min in a 50/50 solution (digestion sln/low-calcium Tyrode solution) to disperse the isolated cells. The supernatant of the cell solution was filtered, and cells were left to settle in a 15 mL conical tube. The procedure was repeated 4 times, and cells were divided into fractions. Cardiomyocyte pellets from each fraction were washed with low-calcium Tyrode solution. For the final washing, supernatant solution was removed and replaced by standard Kraftbrühe (KB) solution [21], and the cells were kept at 4 °C.
INa and ITo were recorded from freshly isolated left ventricular cardiomyocytes and TSA201 cells after 48 h of transfection at room temperature. Electrical currents were recorded using the patch-clamp technique in whole-cell configuration via an Axopatch 200B amplifier (Molecular Devices, Sunnyvale, CA, USA). Cardiomyocytes and TSA201 cells were pre-incubated with 2Nal during 15 min and continuously perfused during recordings. In preliminary experiments, we measured the onset of the block by 2Nal by initially superfusing with control solution and subsequently washing in 2Nal solution. Recordings were acquired at 10 kHz and filtered to 5 kHz (lowpass Bessel filter). Whole-cell capacitance and series resistance compensation (85%) were optimized to reduce the capacitive artifact and minimize voltage error. Analysis of the recordings was performed using the Clampex 10.7 analysis software.
Extracellular solution for ITo recordings in cardiomyocytes contained (in mM) 126 NaCl, 5.4 KCl, 1 MgCl2, 20 HEPES, 2 CaCl2, and 11 glucose. The pH and osmolarity were adjusted to 7.4 and 295–300 mOsm, respectively, using NaOH and sucrose. Pipette solution contained (in mM) 90 K-aspartate, 30 KCl, 1 MgCl2, 20 HEPES, 5 NaCl, 5 MgATP, 5.5 Glucose. The pH was adjusted with KOH to 7.3 and osmolarity to 295–300 mOsm. For ITo recordings in TSA201 cells, extracellular solution contained 130 NaCl, 5 KCl, 1 MgCl2, 2.8 Na-acetate, 10 HEPES, 1.8 CaCl2, and 10 glucose. […]

The test system of series [3] is cardiac sodium current (INa). The settings on record: cited from earlier work. From the text:
At this stage, we cannot distinguish how specific affinities of Kv4.2 or Kv4.3 for 2Nal modulate the overall effect on ITo amplitude in native cardiomyocytes. However, our observation of apparent EC50 differing between the peak and sustained co ...

Series [4] deals with rabbit left-atrium cardiomyocytes. Also noted: method as in PMID 23106642. The following applies: cited from earlier work.
In series [5] the test system is ultra-rapid potassium current. Also noted: method as in PMID 23106642. The following applies: rabbit left-atrium cardiomyocytes; cited from earlier work.
Series [6] concerns large conductance calcium-activated K^+ channels. The settings on record: cited from earlier work.
For series [7], the system named is transient outward potassium current, ITo, and its sustained component, IKsus. Also noted: method as in PMID 18424641, PMID 12215493. The settings on record: cited from earlier work.
The subject of a further series is artery. The settings on record: by enhancing nitric oxide (NO) production in the endothelium; cited from earlier work. From the text:
(§1) Apelin is an endogenous peptide recognized for its therapeutic potential in hypertension and heart failure, as well as for its modulation of the endocrine system. This adipokine is primarily synthesized in adipose tissue but is also produced in the gastrointestinal tract, brain, kidney, lung, mammary glands, and cardiovascular system.

Another series relates to heart. The settings on record: cited from earlier work.
Description: as §1

“Also recorded” adds a separate entry of the source. Like-named read-outs stand apart in the source and are kept apart here.

In the case of “apelin-36: predominant apelin isoform identified in vivo (LVQPRGSRNGPGPWQGGRRKFRRQRPRLSHKGPMPF; Apelin-36; UniProt Q9ULZ1 42-77, looked up)”, in series [1], the “susceptibility to proteolysis” value was “highly susceptible to proteolysis”.
Take `CSCC[C@H](NC(=O)[C@@H]1CCCN1C(=O)CNC(=O)[C@H](CCCCN)NC(=O)[C@H](Cc1c[nH]cn1)NC(=O)[C@H](CO)NC(=O)[C@H](CC(C)C)NC(=O)[C@H](CCCNC(=N)N)NC(=O)[C@@H]1CCCN1C(=O)[C@H](CCCNC(=N)N)NC(=O)[C@@H](N)CCC(N)=O)C(=O)N1CCC[C@H]1C(=O)N[C@@H](Cc1ccc2ccccc2c1)C(=O)O` [2Nal]: the “Maximum block of ITo,peak” value in series [2] (peak component, Gmax ratio, holding −80 mV, 500 ms steps, mean ± SEM) was determined as 34.2 ± 5.6%. The IC50 in series [2] (peak component, read-out: IC50 (half-maximal blocking concentration) for ITo,peak) turned out to be 0.3 ± 0.1 nM; in series [2] (sustained component, read-out: IC50 (half-maximal blocking concentration) for ITo,sus) it was 0.024 ± 0.01 nM. For the same molecule, the “Maximum block of ITo,sus” value in series [2] (sustained component, Gmax ratio, holding −80 mV, 500 ms steps, mean ± SEM) came out at 47 ± 9.2%.
As for apelin, the “effect on cardiac sodium current INa” value in [3] is “increase in INa; also recorded: modulate cardiac sodium current (INa) gating and enhance its amplitude”. Further, in series [4], the “effect on action potential duration” value is on record as “reduces action potential duration (APD)”. Besides, in series [5], the “effect on ultra-rapid potassium current” value is listed as “blocks the ultra-rapid potassium current”. For the same molecule, the “effect on large conductance calcium-activated K+ channels” value in series [6] was “inhibiting large conductance calcium-activated K^+ channels”. In [7], the “effect on ITo and IKsus” value is on record as “no effects”. For the same molecule, the “vasodilation” value in the series with artery is reported as “triggers arterial vasodilation”. Further, the “cardiac inotropic effect” value in the series with heart is given as “strong positive cardiac inotropic effects”.
